Laboratory results: US10138232B2, “Naphthyridinedione derivatives” (NOVARTIS AG, priority 2014, dated 2018)

Tested on: CFTR-Y122X (GFP-CFTR-Y122X-Renilla construct) in Hek293 cell lines
Test: CFTR-Y122X assay (dual reporter readthrough, Renilla luminescence)
Format: cell-based
Details: Homo sapiens, compounds incubated 24 h, tested up to 100 μM; for AC50: nonsense mutation suppression in the CFTR-Y122X assay; for Emax: nonsense mutation suppression, 100% activity = 14 mM paromomycin, read-out: Amax
From the text: In particular, compounds of formula (I), (I′), (Ia), (Ia′) or (Ib) I act as nonsense mutation suppressors on frequent PTCs, e.g. on Y122X in the mRNA of the cystic fibrosis conductance regulator protein (CFTR). This can be determined in vitro, for example, using cell lines expressing GFP-CFTR-Y122X-Renilla constructs as described herein.
Activity of compounds of the present invention was examined in recombinant, dual reporter isogenic Hek293 cell lines (“CFTR-Y122X assay”). The engineered reporter constructs contained the 18 bp sequence strech corresponding to a common Y122X PTC mutation in CFTR class I mutant patients (see Sermet-Gaudelus, BMC Medicine, 2007, 5(5)). Instead of a tyrosine (Y) in position 122 of the CFTR protein a TGA stop codon interrupts the open reading frame (Y122X) of the corresponding mRNA. This TGA stop codon triplet (followed by the pyrimidine base cytosine) is permissive to aminoglycoside mediated translational readthrough which served as positive control for high throughput screening. A corresponding TAA stop codon variant and a wildtype non mutated construct was used for confirmation and counter screening. The CFTR sequence was sandwiched between an eGFP reporter, and a triple myc tag sequence fused to a full length Renilla reporter. All sequences, including an intron containing one positioned pre-eGFP (b-globin intron) were cloned in frame. The corresponding expression constructs were stably expressed in the isogenic HEK-R4 cell host (Invitrogen Incorp.) and selected by blasticidin resistance. The isogenic integration of the construct minimizes gene dose effects and improves assay reproducibility. Stably integrated single cell derived clones were selected and characterized for aminoglycoside mediated readthrough. […] Readthrough of Y122X accumulates an intracellular localized fusion protein approximately 65.5 kDa in size as controlled by western blot analysis and immunofluorescence using an anti-renilla antibody. The eGFP reporter pre-PTC mutation serves as visual control for genetic stability of the screening clones and minimizes protein degradation of small fusion protein amounts. In the assay, compound concentration was 10 μM. In miniaturized 1536 well format 2000 cells were dispensed in 4 μl/well and incubated for 24 h at 37° C., 5% CO2. 40 nl compounds were placed on the cells with control wells containing 1 ul Paramomycin and 14.4 mM final concentration. Compounds were incubated for 24 h. Renilla Glo substrate (2.5 ul) was added and plates were centrifuged and processed for luminescence measurement using various readers. Activity calculation was done using the equation: A1(%)=100*(S−NC)/(AC−NC) where AC, NC and S correspond to active controls (injection of Stimulation buffer=100% stimulation), neutral controls (buffer injection which Iloprost EC10) and screening samples (S). NC corresponds to 0% activity whereas AC is 100% activity (14 mM paromomycin). False positive artefacts were removed in confirmation and validation screening using the same assay format followed by counterscreening using the respective wildtype construct (w/o PTC mutation) cell model. Compounds were tested up to 100 μM compound concentration.

Row | SMILES | AC50 | Emax
1 | O=c1c2ccccc2[nH]c2cc(C3CCC3)n(-c3ccccc3)c(=O)c12 [Example 1.1, 3-Cyclobutyl-2-phenylbenzo[b][1,6]naphthyridine-1,10(2H,5H)-dione] | 0.6 µM | 219%
2 | Cn1c2ccccc2c(=O)c2c(=O)n(-c3ccccc3)c(C3CCC3)cc21 [Example 1.2, 3-Cyclobutyl-5-methyl-2-phenylbenzo[b][1,6]naphthyridine-1,10(2H,5H)-dione] | 1 µM | 260%
3 | CC(C)c1cc2[nH]c3ccccc3c(=O)c2c(=O)n1-c1ccccc1 [Example 1.3, 3-isopropyl-2-phenylbenzo[b][1,6]naphthyridine-1,10(2H,5H)-dione] | 1.1 µM | 281%
4 | CC(C)c1cc2c(c(=O)c3ccccc3n2C)c(=O)n1-c1ccccc1 [Example 1.4, 3-isopropyl-5-methyl-2-phenylbenzo[b][1,6]naphthyridine-1,10(2H,5H)-dione] | 3.2 µM | 324%
5 | CC(C)c1cc2[nH]c3ccc(F)cc3c(=O)c2c(=O)n1-c1ccccc1 [Example 1.5, 8-fluoro-3-isopropyl-2-phenylbenzo[b][1,6]naphthyridine-1,10(2H,5H)-dione] | 1.8 µM | 358%
6 | CC(C)c1cc2c(c(=O)c3cc(F)ccc3n2C)c(=O)n1-c1ccccc1 [Example 1.6, 8-fluoro-3-isopropyl-5-methyl-2-phenylbenzo[b][1,6]naphthyridine-1,10(2H,5H)-dione] | 7.7 µM | 507%
7 | CC(C)c1cc2[nH]c3ccc(Cl)cc3c(=O)c2c(=O)n1-c1ccccc1 [Example 1.7, 8-chloro-3-isopropyl-2-phenylbenzo[b][1,6]naphthyridine-1,10(2H,5H)-dione] | 2.4 µM | 215%
8 | CC(C)c1cc2c(c(=O)c3cc(Cl)ccc3n2C)c(=O)n1-c1ccccc1 [Example 1.8, 8-chloro-3-isopropyl-5-methyl-2-phenylbenzo[b][1,6]naphthyridine-1,10(2H,5H)-dione] | 14.8 µM | 307%
9 | Cc1ccc2[nH]c3cc(C(C)C)n(-c4ccccc4)c(=O)c3c(=O)c2c1 [Example 1.9, 3-isopropyl-8-methyl-2-phenylbenzo[b][1,6]naphthyridine-1,10(2H,5H)-dione] | 1.2 µM | 249%
10 | Cc1ccc2c(c1)c(=O)c1c(=O)n(-c3ccccc3)c(C(C)C)cc1n2C [Example 1.10, 3-isopropyl-5,8-dimethyl-2-phenylbenzo[b][1,6]naphthyridine-1,10(2H,5H)-dione] | 7.3 µM | 409%
11 | CC(C)c1cc2c(c(=O)c3cccc4c3n2CC4)c(=O)n1-c1ccccc1 [Example 1.11, 9-isopropyl-8-phenyl-1H-indolo[1,7-ab][1,6]naphthyridine-6,7(2H,8H)-dione] | 4 µM | 276%
12 | CC(C)c1cc2[nH]c3sccc3c(=O)c2c(=O)n1-c1ccccc1 [Example 1.12, 7-isopropyl-6-phenylthieno[2,3-b][1,6]naphthyridine-4,5(6H,9H)-dione] | 19 µM | 248%
13 | CC(C)c1cc2c(c(=O)c3ccsc3n2C)c(=O)n1-c1ccccc1 [Example 1.13, 7-isopropyl-9-methyl-6-phenylthieno[2,3-b][1,6]naphthyridine-4,5(6H,9H)-dione] | 8.6 µM | 445%
14 | Cc1cc2c(=O)c3c(=O)n(-c4ccccc4)c(C(C)C)cc3[nH]c2s1 [Example 1.14, 7-isopropyl-2-methyl-6-phenylthieno[2,3-b][1,6]naphthyridine-4,5(6H,9H)-dione] | – | 35%
15 | Cc1cc2c(=O)c3c(=O)n(-c4ccccc4)c(C(C)C)cc3n(C)c2s1 [Example 1.15, 7-isopropyl-2,9-dimethyl-6-phenylthieno[2,3-b][1,6]naphthyridine-4,5(6H,9H)-dione] | 5.5 µM | 224%
16 | CC(C)c1cc2[nH]c3ccsc3c(=O)c2c(=O)n1-c1ccccc1 [Example 1.16, 6-isopropyl-7-phenylthieno[3,2-b][1,6]naphthyridine-8,9(4H,7H)-dione] | 1.6 µM | 344%

Row | SMILES | AC50 | Emax
17 | CC(C)c1cc2c(c(=O)c3sccc3n2C)c(=O)n1-c1ccccc1 [Example 1.17, 6-isopropyl-4-methyl-7-phenylthieno[3,2-b][1,6]naphthyridine-8,9(4H,7H)-dione] | 9.2 µM | 430%
18 | Cc1cc2[nH]c3cc(C(C)C)n(-c4ccccc4)c(=O)c3c(=O)c2s1 [Example 1.18, 6-isopropyl-2-methyl-7-phenylthieno[3,2-b][1,6]naphthyridine-8,9(4H,7H)-dione] | 3.9 µM | 240%
19 | Cc1cc2c(s1)c(=O)c1c(=O)n(-c3ccccc3)c(C(C)C)cc1n2C [Example 1.19, 6-isopropyl-2,4-dimethyl-7-phenylthieno[3,2-b][1,6]naphthyridine-8,9(4H,7H)-dione] | 12.8 µM | 253%
20 | Cc1csc2c(=O)c3c(=O)n(-c4ccccc4)c(C(C)C)cc3[nH]c12 [Example 1.20, 6-isopropyl-3-methyl-7-phenylthieno[3,2-b][1,6]naphthyridine-8,9(4H,7H)-dione] | 2.5 µM | 183%
21 | Cc1csc2c(=O)c3c(=O)n(-c4ccccc4)c(C(C)C)cc3n(C)c12 [Example 1.21, 6-isopropyl-3,4-dimethyl-7-phenylthieno[3,2-b][1,6]naphthyridine-8,9(4H,7H)-dione] | 5.4 µM | 379%
22 | CC(C)c1cc2[nH]c3c(c(=O)c2c(=O)n1-c1ccccc1)CCCC3 [Example 1.22, 3-isopropyl-2-phenyl-6,7,8,9-tetrahydrobenzo[b][1,6]naphthyridine-1,10(2H,5H)-dione] | 7.2 µM | 413%
23 | CC(C)c1cc2[nH]c3c(c(=O)c2c(=O)n1-c1ccccc1)CCC3 [Example 1.23, 3-isopropyl-2-phenyl-5,6,7,8-tetrahydro-1H-cyclopenta[b][1,6]naphthyridine-1,9(2H)-dione] | 5.2 µM | 414%
24 | Cn1c2c(c(=O)c3c(=O)n(-c4ccccc4)c(C4CCC4)cc31)CCC2 [Example 1.24, 3-cyclobutyl-5-methyl-2-phenyl-5,6,7,8-tetrahydro-1H-cyclopenta[b][1,6]naphthyridine-1,9(2H)-dione] | 18.4 µM | 157%
25 | Cc1c(C)n(C)c2cc(C3CCC3)n(-c3ccccc3)c(=O)c2c1=O [Example 1.25, 7-cyclobutyl-1,2,3-trimethyl-6-phenyl-1,6-naphthyridine-4,5(1 H,6H)-dione] | 16.8 µM | 87%
26 | O=c1c2c([nH]c3cc(C4CCC4)n(-c4ccccc4)c(=O)c13)CCC2 [Example 1.26, 3-cyclobutyl-2-phenyl-5,6,7,8-tetrahydro-1H-cyclopenta[b][1,6]naphthyridine-1,9(2H)-dione] | 3.3 µM | 229%
27 | Cc1[nH]c2cc(C3CCC3)n(-c3ccccc3)c(=O)c2c(=O)c1C [Example 1.27, 7-cyclobutyl-2,3-dimethyl-6-phenyl-1,6-naphthyridine-4,5(1H,6H)-dione] | 3 µM | 206%
28 | Cn1c2c(c(=O)c3c(=O)n(-c4ccccc4)c(C4CCC4)cc31)CCCC2 [Example 1.28, 3-cyclobutyl-5-methyl-2-phenyl-6,7,8,9-tetrahydrobenzo[b][1,6]naphthyridine-1,10(2H,5H)-dione] | 12.8 µM | 257%
29 | Cn1c2cc(C3CCC3)n(-c3ccccc3)c(=O)c2c(=O)c2ccsc21 [Example 1.29, 7-cyclobutyl-9-methyl-6-phenylthieno[2,3-b][1,6]naphthyridine-4,5(6H,9H)-dione] | 0.7 µM | 286%
30 | O=c1c2c([nH]c3cc(C4CCC4)n(-c4ccccc4)c(=O)c13)CCCC2 [Example 1.30, 3-cyclobutyl-2-phenyl-6,7,8,9-tetrahydrobenzo[b][1,6]naphthyridine-1,10(2H,5H)-dione] | 0.7 µM | 324%
31 | Cc1cc2c(=O)c3c(=O)n(-c4ccccc4)c(C4CCC4)cc3n(C)c2s1 [Example 1.31, 7-cyclobutyl-2,9-dimethyl-6-phenylthieno[2,3-b][1,6]naphthyridine-4,5(6H,9H)-dione] | 0.6 µM | 228%
